Data published in patent US20180194762A1 (Pharmacyclics LLC, priority 2017, published 2018).

Assays:
Type in all cases: biochemical
[1] = biological target: T1, panel of kinases (Homo sapiens, UniProt P51813); assay: Inhibition of a panel of kinases (in vitro HotSpot kinase assay, 33P-ATP, 1 μM ATP), other kinases; details: BMX wild-type, read-out: BMX-WT IC50
T1 sequence (P51813 1-675): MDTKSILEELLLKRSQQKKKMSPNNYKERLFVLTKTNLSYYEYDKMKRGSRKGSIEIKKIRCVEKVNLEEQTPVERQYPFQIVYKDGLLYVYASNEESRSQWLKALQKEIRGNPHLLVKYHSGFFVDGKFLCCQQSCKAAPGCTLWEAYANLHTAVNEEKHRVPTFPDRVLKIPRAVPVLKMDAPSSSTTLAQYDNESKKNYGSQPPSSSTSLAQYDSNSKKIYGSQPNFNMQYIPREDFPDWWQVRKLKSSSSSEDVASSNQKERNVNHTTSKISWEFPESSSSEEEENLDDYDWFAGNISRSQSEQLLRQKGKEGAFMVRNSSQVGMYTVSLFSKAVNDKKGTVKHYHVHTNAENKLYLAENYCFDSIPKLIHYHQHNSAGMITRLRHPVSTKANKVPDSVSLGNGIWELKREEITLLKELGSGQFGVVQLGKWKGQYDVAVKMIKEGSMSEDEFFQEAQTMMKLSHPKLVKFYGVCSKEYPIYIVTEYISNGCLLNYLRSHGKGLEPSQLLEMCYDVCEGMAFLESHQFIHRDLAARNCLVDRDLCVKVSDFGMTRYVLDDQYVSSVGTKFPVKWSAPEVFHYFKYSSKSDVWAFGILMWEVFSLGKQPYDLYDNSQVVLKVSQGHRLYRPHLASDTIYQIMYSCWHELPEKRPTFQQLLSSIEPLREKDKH
Method in brief: (§1)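 At 1 μM ATP spiked with 33P-ATP, substrate phosphorylation by the purified enzymes gives the extent of inhibition.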

[2] = biological target: T2, TEC (Homo sapiens, UniProt P42680); assay: Inhibition of a panel of kinases (in vitro HotSpot kinase assay, 33P-ATP, 1 μM ATP); details: for IC50: HotSpot kinase assay, 1 μM ATP; for TEC/Btk: ratio of TEC IC50 to Btk IC50 (selectivity)
T2 sequence (P42680 1-631): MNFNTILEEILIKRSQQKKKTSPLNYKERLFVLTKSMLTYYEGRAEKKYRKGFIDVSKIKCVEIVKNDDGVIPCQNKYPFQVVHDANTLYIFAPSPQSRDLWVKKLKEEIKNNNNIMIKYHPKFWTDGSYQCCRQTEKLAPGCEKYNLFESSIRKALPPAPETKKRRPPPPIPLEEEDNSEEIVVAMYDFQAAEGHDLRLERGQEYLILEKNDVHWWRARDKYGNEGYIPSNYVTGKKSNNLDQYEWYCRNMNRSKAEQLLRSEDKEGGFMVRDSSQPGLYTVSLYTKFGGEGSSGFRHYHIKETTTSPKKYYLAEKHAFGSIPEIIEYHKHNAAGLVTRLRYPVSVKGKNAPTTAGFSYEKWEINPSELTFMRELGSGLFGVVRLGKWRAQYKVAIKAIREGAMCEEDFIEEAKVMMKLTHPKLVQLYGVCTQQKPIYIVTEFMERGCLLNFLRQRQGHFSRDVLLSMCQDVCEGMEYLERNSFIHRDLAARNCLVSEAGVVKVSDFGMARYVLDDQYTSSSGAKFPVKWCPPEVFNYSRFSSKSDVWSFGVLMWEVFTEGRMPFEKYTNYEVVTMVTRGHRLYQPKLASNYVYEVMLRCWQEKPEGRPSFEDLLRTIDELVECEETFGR
Method in brief: as §1

[3] = biological target: T3, Btk (Homo sapiens, UniProt Q06187); assay: Btk in vitro inhibitory activity (one of Method A TR-FRET, Method B electrophoretic mobility shift, Method C radiometric filter binding); details: wild-type Btk; read-out: Btk-WT IC50
T3 construct: purified from insect cells as a full-length construct containing a N-terminal 6X-His tag; His6 (N); made in house; host or cells: insect cells (Method C)
T3 sequence (Q06187 whole entry): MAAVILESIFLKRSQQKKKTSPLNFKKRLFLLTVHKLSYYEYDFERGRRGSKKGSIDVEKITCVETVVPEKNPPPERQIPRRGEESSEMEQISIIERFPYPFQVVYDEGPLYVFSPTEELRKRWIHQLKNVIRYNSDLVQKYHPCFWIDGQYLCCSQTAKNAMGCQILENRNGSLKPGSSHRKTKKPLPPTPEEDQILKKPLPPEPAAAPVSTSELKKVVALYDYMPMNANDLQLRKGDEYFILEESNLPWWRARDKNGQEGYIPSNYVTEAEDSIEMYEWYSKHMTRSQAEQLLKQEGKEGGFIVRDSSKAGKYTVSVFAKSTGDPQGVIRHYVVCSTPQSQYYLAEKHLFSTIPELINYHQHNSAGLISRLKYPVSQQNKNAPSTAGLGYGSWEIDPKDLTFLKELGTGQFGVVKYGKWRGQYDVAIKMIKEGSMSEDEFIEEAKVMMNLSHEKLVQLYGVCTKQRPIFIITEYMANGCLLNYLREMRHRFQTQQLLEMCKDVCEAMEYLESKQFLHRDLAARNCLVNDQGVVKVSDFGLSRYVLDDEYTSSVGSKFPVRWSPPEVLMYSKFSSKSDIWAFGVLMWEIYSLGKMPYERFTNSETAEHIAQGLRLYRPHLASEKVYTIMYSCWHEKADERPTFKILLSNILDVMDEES
Method in brief: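 Three alternative formats were used. A radiometric filter-binding read used 8 nM full-length His-BTK with 0.2 mg/mL poly(Glu-Tyr) 4:1 (C); microfluidic separation of 1 μM FAM-peptide by 1 nM BTK gave IC50 from 12-point curves (B); TR-FRET at Km ATP, 0.5 nM Btk, gave Ki(app)-derived IC50 (A).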

SMILES	IC50 [1] [nM]	IC50 [2] [nM]	TEC/Btk [2]	IC50 [3] [nM]
C[C@@H](NC(=O)c1nc(C(C)(C)C)no1)c1ccc(-c2ccnc3[nH]nc(N[C@@H]4CC[C@H](C)N(C(=O)N(C)C)C4)c23)cc1F [Example 193, (2S,5R)-5-{[4-(4-{(1R)-1-[(3-tert-butyl-1,2,4-oxadiazole-5-carbonyl)amino]ethyl}-3-fluorophenyl)-1H-pyrazolo[3,4-b]pyridin-3-yl]amino}-N,N,2-trimethylpiperidine-1-carboxamide]	1040	381	1073	0.355
C[C@H]1CC[C@@H](Nc2n[nH]c3nccc(-c4ccc(CNC(=O)c5nc(C(C)(C)C)no5)c(F)c4)c23)CN1C(=O)n1ccnc1 [Example 196, 3-tert-butyl-N-{[2-fluoro-4-(3-{[(3R,6S)-1-(1H-imidazole-1-carbonyl)-6-methylpiperidin-3-yl]amino}-1H-pyrazolo[3,4-b]pyridin-4-yl)phenyl]methyl}-1,2,4-oxadiazole-5-carboxamide]	3430	1600	816	1.96
CC(=O)N[C@@H]1CCN(c2n[nH]c3nccc(-c4ccc(CNC(=O)c5nc(C(C)C)no5)c(F)c4)c23)C1 [Example 200, N-[(4-{3-[(3R)-3-acetamidopyrrolidin-1-yl]-1H-pyrazolo[3,4-b]pyridin-4-yl}-2-fluorophenyl)methyl]-3-(propan-2-yl)-1,2,4-oxadiazole-5-carboxamide]	1400	1470	343	4.28
C[C@@H](NC(=O)c1nc(C(C)(C)C)no1)c1ccc(-c2ccnc3[nH]nc(NC4CCCC4)c23)cc1 [Example 201, 3-tert-butyl-N-[(1R)-1-{4-[3-(cyclopentylamino)-1H-pyrazolo[3,4-b]pyridin-4-yl]phenyl}ethyl]-1,2,4-oxadiazole-5-carboxamide]	6700	8340	818	10.2
C[C@@H](NC(=O)c1cc(C(C)(C)O)on1)c1ccc(-c2ccnc3[nH]nc(NC4CCN(S(C)(=O)=O)CC4)c23)cc1 [Example 203, 5-(2-hydroxypropan-2-yl)-N-{(1R)-1-[4-(3-{[1-(methanesulfonyl)piperidin-4-yl]amino}-1H-pyrazolo[3,4-b]pyridin-4-yl)phenyl]ethyl}-1,2-oxazole-3-carboxamide]	> 10000	> 10000	>10000	> 1000
CC(=O)N1CCC(Nc2n[nH]c3nccc(-c4ccc([C@@H](C)NC(=O)c5cc(C(C)(C)O)on5)cc4)c23)CC1 [Example 204, N-[(1R)-1-(4-{3-[(1-acetylpiperidin-4-yl)amino]-1H-pyrazolo[3,4-b]pyridin-4-yl}phenyl)ethyl]-5-(2-hydroxypropan-2-yl)-1,2-oxazole-3-carboxamide]	> 10000	> 10000	>10000	> 1000
CC(C)(C)c1noc(C(=O)NCc2ccc(-c3ccnc4[nH]nc(N5CCC(NC(=O)C6CC6)CC5)c34)cc2F)n1 [Example 207, 3-tert-butyl-N-{[4-(3-{4-[(cyclopropanecarbonyl)amino]piperidin-1-yl}-1H-pyrazolo[3,4-b]pyridin-4-yl)-2-fluorophenyl]methyl}-1,2,4-oxadiazole-5-carboxamide]	1220	815	2173	0.375
CC(C)(C)c1noc(C(=O)NCc2ccc(-c3ccnc4[nH]nc(N5CCC(NC(=O)c6ccccc6)CC5)c34)cc2F)n1 [Example 208, N-({4-[3-(4-benzamidopiperidin-1-yl)-1H-pyrazolo[3,4-b]pyridin-4-yl]-2-fluorophenyl}methyl)-3-tert-butyl-1,2,4-oxadiazole-5-carboxamide]	2090	1710	2599	0.658
CCNC(=O)N1C[C@H](Nc2n[nH]c3nccc(-c4ccc(CNC(=O)c5nc(C(C)(C)C)no5)c(F)c4)c23)CC[C@@H]1C [Example 209, (2S,5R)-5-{[4-(4-{[(3-tert-butyl-1,2,4-oxadiazole-5-carbonyl)amino]methyl}-3-fluorophenyl)-1H-pyrazolo[3,4-b]pyridin-3-yl]amino}-N-ethyl-2-methylpiperidine-1-carboxamide]	2200	905	718	1.26
C[C@@H](NC(=O)c1nc(C(C)(C)C)no1)c1ccc(-c2ccnc3[nH]nc(N4CCOCC4)c23)cc1 [Example 219, 3-tert-butyl-N-[(1R)-1-{4-[3-(morpholin-4-yl)-1H-pyrazolo[3,4-b]pyridin-4-yl]phenyl}ethyl]-1,2,4-oxadiazole-5-carboxamide]	582	781	4199	0.186
C[C@@H](NC(=O)c1nc(C(C)(C)C)no1)c1ccc(-c2ccnc3[nH]nc(N4CCS(=O)(=O)CC4)c23)cc1 [Example 220, 3-tert-butyl-N-[(1R)-1-{4-[3-(1,1-dioxo-1λ^6-thiomorpholin-4-yl)-1H-pyrazolo[3,4-b]pyridin-4-yl]phenyl}ethyl]-1,2,4-oxadiazole-5-carboxamide]	5700	8960	6013	1.49
CC(C)(C)c1noc(C(=O)NCc2ccc(-c3ccnc4[nH]nc(N5CCC(NS(=O)(=O)C6CC6)CC5)c34)cc2F)n1 [Example 224, 3-tert-butyl-N-{[4-(3-{4-[(cyclopropanesulfonyl)amino]piperidin-1-yl}-1H-pyrazolo[3,4-b]pyridin-4-yl)-2-fluorophenyl]methyl}-1,2,4-oxadiazole-5-carboxamide]	249	289	3121	0.0926
COC(=O)N1C[C@H](Nc2n[nH]c3nccc(-c4ccc(CNC(=O)c5noc(C(C)(C)C)n5)c(F)c4)c23)CC[C@@H]1C [Example 226, methyl (2S,5R)-5-{[4-(4-{[(5-tert-butyl-1,2,4-oxadiazole-3-carbonyl)amino]methyl}-3-fluorophenyl)-1H-pyrazolo[3,4-b]pyridin-3-yl]amino}-2-methylpiperidine-1-carboxylate]	2110	1370	926	1.48
C[C@H]1CC[C@@H](Nc2n[nH]c3nccc(-c4ccc(CNC(=O)c5noc(C(C)(C)C)n5)c(F)c4)c23)CN1C(=O)CO [Example 227, 5-tert-butyl-N-{[2-fluoro-4-(3-{[(3R,6S)-1-(hydroxyacetyl)-6-methylpiperidin-3-yl]amino}-1H-pyrazolo[3,4-b]pyridin-4-yl)phenyl]methyl}-1,2,4-oxadiazole-3-carboxamide]	704	205	448	0.458
CC(=O)N1C[C@H](Nc2n[nH]c3nccc(-c4ccc(CNC(=O)c5noc(C(C)(C)C)n5)c(F)c4)c23)CC[C@@H]1C [Example 229, N-{[4-(3-{[(3R,6S)-1-acetyl-6-methylpiperidin-3-yl]amino}-1H-pyrazolo[3,4-b]pyridin-4-yl)-2-fluorophenyl]methyl}-5-tert-butyl-1,2,4-oxadiazole-3-carboxamide]	531	298	778	0.383
